The source of these data is patent US20240190831A1, “TRANSTHYRETIN STABILIZING COMPOUNDS” (Protego Biopharma, Inc., priority 2021, published 2024).

A short description of series [1]: In vitro rat liver S9 stability assay (formation of tafamidis). Particulars: rat liver S9, 1 μM test compound, 37° C. The format is in vitro ADME. Summed up: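 Test compound at 1 μM was incubated with rat liver S9 at 37° C. Samples taken at 0, 5, 10, 20, 30 and 60 min were protein-precipitated and analysed by LC-MS/MS. Percentage formation of the active agent was calculated at each time point.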

Series [2] in a line: In vivo rat PK (CSF/plasma and brain/plasma ratio of tafamidis). The following applies: for Tafamidis CSF/plasma Ratio over 24 hrs (po): oral dosing of test compound. An excerpt: For a compound provided herein to be an effective TTR stabilizer drug to halt and/or prevent the ocular and cerebral TTR amyloid deposition TTR amyloidosis, it has to be able to penetrate into the brain and CSF (surrogate for eye penetration) and deliver a sufficient amount of TTR stabilizer to stop TTR dissociation. A pharmacokinetic study in rat was used to evaluate the compounds. Male Sprague-Dawley (SD) rats (200-220 g weight) were acclimated for at least 2 to 3 days before being placed on study. All animals had access to certified rodent diet and water at libitum. Appropriate amount of the test compound was accurately weighed and mixed with appropriate volume of vehicle (such as DMSO/sterile water for iv dosing or 0.5% methylcellulose homogenous suspension or solution for oral administration or as a solution in a mixture NMP/PEG400/solutol/water) to administer a dose of 2, 5 or 10 mg/kg. For IV dosing the test compound was administered via tail vein or indwelling cannula. For oral dosing, the test compound was administered by oral gavage. Blood and CSF samples were collected at selected timepoints. Blood collection was performed from saphenous vein or tail vein of each animal into polypropylene tubes at each timepoint. All blood samples were transferred into EDTA-K2 tubes and centrifuged for 15 minutes at 4° C. for plasma collection. Plasma samples were kept at −80° C. until LC/MSMS analysis. CSF was collected from cisterna magna at each timepoint and quick frozen over dry ice and kept at −80° C. until LC/MSMS analysis. Brains were harvested immediately after the terminal bleeding (˜24 hrs post dosing). The blood of the brain was perfused with normal saline. The brain was quickly picked and placed into centrifuge tube. The weight of brain samples was recorded. 4-Fold homogenization solution (MeOH/15 mM PBS (1:2)) was added into the tube according to the weighed samples. The brain was homogenized using a Polytron (3 strokes or more until homogenous, each 30 seconds) on wet ice. The samples were quick frozen over dry ice and kept at −80° C. until LC/MSMS analysis. Using a LC-MSMS method for the quantitative determination of test compound in biological matrixes, amount of test compound and active agent were measured in plasma and CSF at selected timepoints post-dosing and in brain at 24 hrs post dosing. Plasma concentration versus time data was analyzed by non-compartmental approaches using the Phoenix WinNonlin 6.3 software program. As reference, an oral dose of 2 mg/kg of tafamidis gave a CSF to plasma ratio over 24 hrs around 0.01 and a brain to plasma ratio at 24 hrs around 0.02.
Results from rat PK (CSF/plasma ratio and brain/plasma ratio at 24 hrs) are shown in Table 4B and Table 4C, respectively.

The conditions of series [3]: tafamidis-treated FAP patients; cited from earlier work.

Some results are limits rather than exact numbers.

As for `CN(C)CCNC(=O)c1ccc2nc(-c3cc(Cl)cc(Cl)c3)oc2c1` [Compound 7, 2-(3,5-dichlorophenyl)-N-(2-(dimethylamino)ethyl)benzo[d]oxazole-6-carboxamide], the “Formation of tafamidis at 60 min” value in series [1] was “A (A is <25%)”. In addition, in series [2], the “Tafamidis CSF/plasma Ratio over 24 hrs (po)” value (from here on “Tafamidis CSF/plasma Ratio”) was “C (C is ≥0.02)”.
Turning to `CC(Cc1ncc[nH]1)OC(=O)c1ccc2nc(-c3cc(Cl)cc(Cl)c3)oc2c1` (centres unmarked) [Compound 34, 1-(1H-imidazol-2-yl)propan-2-yl 2-(3,5-dichlorophenyl)benzo-[d]oxazole-6-carboxylate], the “Formation of tafamidis at 60 min” value in series [1] was “A (A is <25%)”. The “Tafamidis CSF/plasma Ratio” value in series [2] is recorded as “B (B is ≥0.015 to <0.02)”.
For `O=C(c1ccc2nc(-c3cc(Cl)cc(Cl)c3)oc2c1)N1CCCC(O)C1` (centres unmarked) [Compound 83], the “Formation of tafamidis at 60 min” value in series [1] was “A (A is <25%)”. In addition, the “Tafamidis CSF/plasma Ratio” value in series [2] was “A (A is <0.015)”.
For `O=C(c1ccc2nc(-c3cc(Cl)cc(Cl)c3)oc2c1)N1CCC(O)C1` (centres unmarked) [Compound 84], in series [1], the “Formation of tafamidis at 60 min” value is “A (A is <25%)”. In addition, the “Tafamidis CSF/plasma Ratio” value in series [2] was “A (A is <0.015)”.
As for `O=C(c1ccc2nc(-c3cc(Cl)cc(Cl)c3)oc2c1)N1CC(O)C1` [Compound 93], the “Formation of tafamidis at 60 min” value in series [1] is listed as “A (A is <25%)”. For the same compound, the “Tafamidis CSF/plasma Ratio” value in series [2] is on record as “A (A is <0.015)”.
With `CC1(O)CN(C(=O)c2ccc3nc(-c4cc(Cl)cc(Cl)c4)oc3c2)C1` [Compound 101], in series [1], the “Formation of tafamidis at 60 min” value is reported as “A (A is <25%)”. Also, the “Tafamidis CSF/plasma Ratio” value in series [2] was “B (B is ≥0.015 to <0.02)”.
For `O=C(c1ccc2nc(-c3cc(Cl)cc(Cl)c3)oc2c1)N1CCC(F)(F)C1` [Compound 104], in series [1], the “Formation of tafamidis at 60 min” value is on record as “A (A is <25%)”. Besides, the “Tafamidis CSF/plasma Ratio” value in series [2] was “A (A is <0.015)”.
As for `O=C(O)c1ccc2nc(-c3cc(Cl)cc(Cl)c3)oc2c1` [tafamidis], the Kp in series [2] (male, Sprague-Dawley, CSF and plasma, oral dose of 2 mg/kg of tafamidis, reference, read-out: CSF to plasma ratio over 24 hrs) is about 0.01. For the same compound, in series [2] (male, Sprague-Dawley, brain and plasma, oral dose of 2 mg/kg of tafamidis, reference), the Kp at 24 h is about 0.02. In addition, in series [3], the “tafamidis level in CSF, of that in plasma” value was 2%; the “tafamidis level in vitreous, of that in plasma” value is recorded as 0.5%; the “tafamidis/TTR stoichiometric ratio in plasma” value is 2.4; the “tafamidis/TTR stoichiometric ratio in vitreous and CSF” value is at most 1.
